Data published in patent publication EP4682149A1 (Prime Gene Therapeutics Co., Ltd., priority 2023, dated 2024).
In brackets after ≈: the same amount, converted by molar mass.

Legend:
[1] = Pharmacokinetic (PK) determination in adult Beagle dogs; type: in vivo
Description: Healthy adult male Beagle dogs were obtained from Beijing Marshall Biotechnology Co., Ltd. Three groups were divided into this study and administered via oral gavage at a dose of 19.5 mg/kg. Animals receiving oral gavage were fasted overnight and from 10 hours before to 4 hours after administration. Blood samples were collected 15 minutes, 30 minutes, 45 minutes, 1 hour, 1.5 hours, 3 hours, 4 hours, 6 hours, 8 hours, and 24 hours after gavage. Blood samples (1 mL) were collected from the forelimb vein or other suitable venous sampling methods and placed in labeled EDTA-K2 anticoagulant tubes. After gentle inversion to thoroughly mix the anticoagulant with the blood, the tubes were immediately placed on wet ice. Plasma was separated by centrifugation within 1 hour of blood collection in the condition of 4°C, 2200g, and 10 minutes. The separated plasma was placed in labeled EP tubes. Plasma samples were immediately stored in an ultra-low temperature freezer until analysis. Plasma samples should be stored in a refrigerator at -70°C before testing. Plasma samples were extracted using protein precipitation, and the extracts were analyzed by LC/MS/MS.

[2] = Solubility determination in buffer solutions (HPLC); type: physicochemical; conditions: for solubility: 37°C
Description: Appropriate amounts of Forms III, IV, and V were weighed and added to buffer solutions with pH 4.5 and 6.8 to prepare a suspension at 5 mg/mL. The resulting suspension was stirred at 37°C, and samples were collected and analyzed at 5, 30, 60, and 240 minutes. Use a syringe to draw approximate 1 mL of the suspension, filter it through a membrane filter, and dilute it several times before testing the resulting filtrate with HPLC, using the area normalization method to determine the solubility. Table 8 Tests of different crystal forms at various pH values

[3] = Competitive slurry test (XRD of the solid); type: physicochemical; conditions: for form transformation in competitive slurry: ethanol/water (1/1) (80°C), acetonitrile (70°C), acetonitrile/water (70°C)
Description: The relative stability of Form II and Form III was investigated by competitive slurry test. Approximately 5 mg of Form II and Form III were weighed, mixed, and then added in 1/1 ratio of methanol/n-heptane, ethanol and ethyl acetate, respectively, to prepare a suspension. The suspension was stirred at room temperature for several hours, then centrifuged and the solid was analyzed by XRD.
Competitive slurry studies were conducted to investigate the relative stability of Forms III, IV, and V. 5 mg of Forms III, IV, and V were weighed and mixed uniformly. Suspensions were prepared respectively in ethanol (80°C), ethanol/water (1/1) (80°C), water (60°C), water (25°C), acetonitrile (70°C), and acetonitrile/water (1/1) (70°C). The suspensions were stirred for 12 hours, and the solids were centrifuged and analyzed by XRD. Table 6: Competitive slurry results of Forms III, IV and V

[4] = Stability investigation (HPLC purity at 220 nm and XRD); type: physicochemical; conditions: for chemical stability / crystal form change: 40°C/75%RH and 25°C/60%RH for 7 days
Description: The analysis method is as follows: Octadecylsilane bonded silica gel was used as the filler (Kromasil C 18 4.6 mm × 250 mm, 5 µm); 0.01 mol/L potassium dihydrogen phosphate solution (pH was adjusted to 3.0 with phosphoric acid) was used as mobile phase A, and methanol was used as mobile phase B. Gradient elution was performed according to the table below; the detection wavelength was 220 nm; the column temperature was 40°C; the flow rate was 1.0 ml/min; the injection volume was 10 µl, and the HPLC purity was calculated by the area normalization method.
Appropriate amounts of Form III, IV, and V were weighed in sample bottles and stored uncovered at 80°C, 40°C/75% RH, and 25°C/60% RH for 7 days. Samples were collected at 0, 1, 3, and 7 days for HPLC and XRD analysis. Table 7 Stability test results of Form III, IV and V

[5] = Determination of bioavailability in adult SD rats; type: in vivo; conditions: Sprague-Dawley, rat, plasma, female SD rats
Description: Healthy adult female Sprague-Dawley rats were obtained from Beijing Weitong Lihua Laboratory Animal Technology Co., Ltd. The study was conducted in two phases: first, animals received a single intravenous injection of 1 mg/kg; second, one week later, the same group received a single oral gavage of the suspension at a dose of 10 mg/kg. Animals receiving oral gavage were fasted overnight and from 10 hours before to 4 hours after administration. Animals in the intravenous group were not restricted to food. Blood samples were collected at 0.083, 0.25, 0.5, 1, 2, 4, 6, 8, and 24 hours after administration for the intravenous group and at 0.25, 0.5, 1, 2, 4, 8, and 24 hours after administration for the oral group. After isoflurane anesthesia by using a small animal anesthesia machine, 0.4 ml of whole blood was obtained from the retinal venous plexus. The sample was centrifuged at 4000 rpm for 20 minutes at 4°C. Plasma was separated and placed in labeled EP tubes. Plasma samples were immediately stored in an ultra-low temperature freezer until analysis. Plasma samples should be stored in a refrigerator at -70°C before testing. Plasma samples were extracted using protein precipitation, and the extracts were analyzed by LC/MS/MS.

JAK1/2/3 = assay: Enzymatic activity (IC50) test, Lance Ultra TR-FRET; conditions: JAK1/2/3 kinase platform; kinase not given
[6] = male Beagle dogs, oral gavage 19.5 mg/kg, 19.5 mg/kg
[7] = male Beagle dogs, oral gavage 19.5 mg/kg

For `N#CCC1(n2cc(-c3ncnc4[nH]ccc34)c(N)n2)CN(C2CCN(C(=O)c3ccnc(C(F)(F)F)c3F)CC2)C1` [listing 1 of 3 here], the Tmax ([1]; dog, plasma, male Beagle dogs, oral gavage 19.5 mg/kg, read-out: Tmax) was 1 h, the “AUC 0-inf” value [1, 6] was 13248 ng·h/mL and the “AUC 0-t” value [1, 6] was 13174 ng·h/mL. It also gave a C max [1, 6] of 4057 ng/mL, a half-life ([1]; male, beagle, dog, plasma, po, 19.5 mg/kg, male Beagle dogs, oral gavage 19.5 mg/kg) of 2.45 h and a solubility ([2]; PH=4.5 buffer, 5 min) of 41.3 µg/mL (≈ 72.6 µM). The solubility ([2]; PH=4.5 buffer, 30 min) was 60.1 µg/mL (≈ 106 µM), the solubility ([2]; PH=4.5 buffer, 60 min) was 65.5 µg/mL (≈ 115 µM) and the solubility ([2]; PH=4.5 buffer, 240 min) was 84 µg/mL (≈ 148 µM). For the same compound, the solubility ([2]; pH=6.8 buffer, 5 min) was 11.2 µg/mL (≈ 19.7 µM), the solubility ([2]; pH=6.8 buffer, 30 min) was 29.9 µg/mL (≈ 52.6 µM) and the solubility ([2]; pH=6.8 buffer, 60 min) was 33.2 µg/mL (≈ 58.4 µM). The solubility ([2]; pH=6.8 buffer, 240 min) was 41.5 µg/mL (≈ 73 µM), the “relative stability of Form II and Form III” value ([3]; Form II and Form III mixed, methanol/n-heptane 1/1, ethanol, ethyl acetate, room temperature, several hours, XRD) was “more stable than Form II” and the “form transformation in competitive slurry” value [3] was “transformed into Form IV”. For the same compound, the “220nm (HPLC purity)” value ([4]; 0 days) was 99.83%, the “220nm (HPLC purity)” value ([4]; 25°C/60%RH, 3 days, uncovered) was 99.90% and the “220nm (HPLC purity)” value ([4]; 25°C/60%RH, 7 days, uncovered) was 99.95%. The “220nm (HPLC purity)” value ([4]; 40°C/75%RH, 3 days, uncovered) was 99.89%, the “220nm (HPLC purity)” value ([4]; 40°C/75%RH, 7 days, uncovered) was 99.90% and the chemical stability ([4]; 80°C) was “relatively stable”. For the same compound, the crystal form change ([4]; 80°C) was “did not change”, the “220nm (HPLC purity)” value ([4]; 80°C, 1 day, uncovered) was 99.90% and the “220nm (HPLC purity)” value ([4]; 80°C, 3 days, uncovered) was 99.89%. For the same compound, the “220nm (HPLC purity)” value ([4]; 80°C, 7 days, uncovered) was 99.91%.

For `N#CCC1(n2cc(-c3ncnc4[nH]ccc34)c(N)n2)CN(C2CCN(C(=O)c3ccnc(C(F)(F)F)c3F)CC2)C1` [listing 2 of 3 here], the “pharmacokinetic properties after PO administration” value ([1]; comparison of the crystal forms) was “better pharmacokinetic properties”, the Tmax [1, 7] was 1.00 h and the “AUC 0-inf” value [1, 6] was 27789 ng·h/mL. The “AUC 0-t” value [1, 6] was 27750 ng·h/mL, the C max [1, 6] was 6197 ng/mL and the “t 1/2” value [1, 6] was 2.63 h. It also gave an AUC 0-inf ([5]; IV (1 mg/kg)) of 456 ng·h/mL, a half-life ([5]; IV (1 mg/kg)) of 0.61 h and a clearance ([5]; IV (1 mg/kg), read-out: Cl s,app) of 37.7 mL/min/kg. For the same compound, the Vd ([5]; IV (1 mg/kg), read-out: VZ) was 1.5 L/kg, the bioavailability ([5]; PO (10 mg/kg) vs IV (1 mg/kg)) was 17% and the AUC 0-inf ([5]; PO (10 mg/kg), suspension) was 783 ng·h/mL. The Cmax ([5]; PO (10 mg/kg), suspension) was 475 ng/mL, the Tmax ([5]; PO (10 mg/kg), suspension) was 0.5 h and the half-life ([5]; PO (10 mg/kg), suspension) was 1.9 h. For the same compound, the solubility ([2]; PH=4.5 buffer, 5 min) was 47.1 µg/mL (≈ 82.8 µM), the solubility ([2]; PH=4.5 buffer, 30 min) was 65.6 µg/mL (≈ 115 µM) and the solubility ([2]; PH=4.5 buffer, 60 min) was 70 µg/mL (≈ 123 µM). The solubility ([2]; PH=4.5 buffer, 240 min) was 73.4 µg/mL (≈ 129 µM), the “solubility relative to Form V” value ([2]; pH = 4.5 (postprandial gastric juice), 240 min) was “twice that of Form V” and the “solubility relative to Form V” value ([2]; pH = 6.8 (simulated intestinal fluid), 240 min) was “twice that of Form V”. It also gave a solubility ([2]; pH=6.8 buffer, 5 min) of 24.7 µg/mL (≈ 43.4 µM), a solubility ([2]; pH=6.8 buffer, 30 min) of 37.2 µg/mL (≈ 65.4 µM) and a solubility ([2]; pH=6.8 buffer, 60 min) of 40.2 µg/mL (≈ 70.7 µM). For the same compound, the solubility ([2]; pH=6.8 buffer, 240 min) was 40.2 µg/mL (≈ 70.7 µM), the “relative stability of the forms” value ([3]; conclusion from competitive slurry of Forms III, IV, V) was “the most stable of the five forms” and the “220nm (HPLC purity)” value ([4]; 0 days) was 99.57%. For the same compound, the “220nm (HPLC purity)” value ([4]; 25°C/60%RH, 3 days, uncovered) was 99.59%, the “220nm (HPLC purity)” value ([4]; 25°C/60%RH, 7 days, uncovered) was 99.63% and the “220nm (HPLC purity)” value ([4]; 40°C/75%RH, 3 days, uncovered) was 99.53%. For the same compound, the “220nm (HPLC purity)” value ([4]; 40°C/75%RH, 7 days, uncovered) was 99.63%, the chemical stability ([4]; 80°C) was “relatively stable” and the crystal form change ([4]; 80°C) was “did not change”. For the same compound, the “220nm (HPLC purity)” value ([4]; 80°C, 1 day, uncovered) was 99.57%, the “220nm (HPLC purity)” value ([4]; 80°C, 3 days, uncovered) was 99.60% and the “220nm (HPLC purity)” value ([4]; 80°C, 7 days, uncovered) was 99.57%.

For `N#CCC1(n2cc(-c3ncnc4[nH]ccc34)c(N)n2)CN(C2CCN(C(=O)c3ccnc(C(F)(F)F)c3F)CC2)C1` [listing 3 of 3 here], the Tmax [1, 7] was 1.00 h, the “AUC 0-inf” value [1, 6] was 8431 ng·h/mL and the “AUC 0-t” value [1, 6] was 8354 ng·h/mL. For the same compound, the C max [1, 6] was 2440 ng/mL, the “t 1/2” value [1, 6] was 2.86 h and the solubility ([2]; PH=4.5 buffer, 5 min) was 11.2 µg/mL (≈ 19.7 µM). For the same compound, the solubility ([2]; PH=4.5 buffer, 30 min) was 25.8 µg/mL (≈ 45.4 µM), the solubility ([2]; PH=4.5 buffer, 60 min) was 28.9 µg/mL (≈ 50.8 µM) and the solubility ([2]; PH=4.5 buffer, 240 min) was 35.6 µg/mL (≈ 62.6 µM). The solubility ([2]; pH=6.8 buffer, 5 min) was 7.6 µg/mL (≈ 13.4 µM), the solubility ([2]; pH=6.8 buffer, 30 min) was 13.3 µg/mL (≈ 23.4 µM) and the solubility ([2]; pH=6.8 buffer, 60 min) was 16 µg/mL (≈ 28.1 µM). For the same compound, the solubility ([2]; pH=6.8 buffer, 240 min) was 19 µg/mL (≈ 33.4 µM), the “form transformation in competitive slurry” value [3] was “transformed into Form IV” and the “220nm (HPLC purity)” value ([4]; 0 days) was 98.02%. The “220nm (HPLC purity)” value ([4]; 25°C/60%RH, 3 days, uncovered) was 98.10%, the “220nm (HPLC purity)” value ([4]; 25°C/60%RH, 7 days, uncovered) was 97.87% and the “220nm (HPLC purity)” value ([4]; 40°C/75%RH, 3 days, uncovered) was 98.02%. The “220nm (HPLC purity)” value ([4]; 40°C/75%RH, 7 days, uncovered) was 98.01%, the chemical stability ([4]; 80°C) was “relatively stable” and the crystal form change ([4]; 80°C) was “did not change”. The “220nm (HPLC purity)” value ([4]; 80°C, 1 day, uncovered) was 98.05%, the “220nm (HPLC purity)” value ([4]; 80°C, 3 days, uncovered) was 98.03% and the “220nm (HPLC purity)” value ([4]; 80°C, 7 days, uncovered) was 98.02%.

For `N#CCC1(n2cc(-c3ncnc4[nH]ccc34)cn2)CN(C2CCN(C(=O)c3ccnc(C(F)(F)F)c3F)CC2)C1` [Itacitinib, reference compound], the IC50 (JAK1/2/3) was < 10 nM.

For `N#CCC1(n2cc(-c3ncnc4[nH]ccc34)c(N)n2)CN(C2CCN(Cc3ccnc(C(F)(F)F)c3F)CC2)C1` [compound of formula I (amorphous form), 2-(3-(3-amino-4-(7H-pyrrolo[2,3-d]pyrimidin-4-yl)-1H-pyrazol-1-yl)-1-(1-(3-fluoro-2-(trifluoromethyl)isonicotinyl)piperidin-4-yl)azetidin-3-yl)acetonitrile], the IC50 (JAK1/2/3) was < 10 nM.
